Laboratory results as given in ChEMBL document CHEMBL1136867, “2009 Edward E Smissman Award. Pharmaceutical "gold" from neurostabilizing agents: topiramate and successor molecules” (J Med Chem, 2009).

Target: Carbonic anhydrase 2 (Homo sapiens, UniProt P00918)
Experiment: Inhibition of human carbonic anhydrase 2

`NS(=O)(=O)NCc1csc2ccccc12` showed an IC50 of 110 µM.
